Laboratory results as given in PMC2984425, “Safety and pharmacokinetics of novel selective vascular endothelial growth factor receptor-2 inhibitor YN968D1 in patients with advanced malignancies” (BMC Cancer, 2010).
Where two headings read alike, the source gives them in different places.

Key:
xenograft = tested on: xenograft; design: method as in ref 8 = [8]; Chen P Iruela-Arispe L Lou L Sun P Yuan K VEGFr inhibitor YN968D1 xenograft dose response studies against human colon cancer Ls174t and HT29 Proc Amer Assoc Cancer Res 2006 47 abst 1764; settings: xenograft study; cited from earlier work
[1] = tested on: patients with advanced solid tumors; assay: Phase I dose escalation: MTD and DLT of oral once-daily apatinib; type: in vivo
Procedure: The phase I study was designed in accordance with the Chinese State Food and Drug Administration (SFDA) recommendations (Guidance for Industry, 2005). PK evaluations were to be performed for single-dosing and multiple-dosing of which the dose levels were determined after completion of dose-escalation. Three dose levels (low, intermediate and high dose) for single-dosing and one dose level (the recommended dose for phase II) for multiple-dosing study, between 8 to 12 participants for each dose levels, were required to meet the SFDA guidance. A cross-over design to evaluate the effects of food intake was incorporated into the single-dosing assessment, also meeting the SFDA requirement, but data will be presented separately.
Apatinib was provided by Advenchen Laboratories, LLC (Northridge, CA, USA) as capsule to be administered orally daily. A safe starting dose was determined in accordance with SFDA recommendations (Guidance for Industry 2005) following a previously established maximum-tolerated dose (MTD) in dogs for YN968D1 of above 30 mg/kg. Thus, in compliance with the SFDA's recommendation, the starting dose was determined to be 250 mg/day, corresponding to one-fourth of the MTD in dogs. (ClinicalTrials.gov number: NCT00633490).
Dose-escalation cohorts enrolled three to six patients. Intrapatient dose escalation was not allowed. […]

VEGFR-2 = settings: no reference given; read-out: IC50, inhibitory effect on VEGFR-2; cited from earlier work
[2] = Plasma pharmacokinetics after single and multiple oral doses (LC-MS/MS, non-compartmental analysis); type: in vivo, human; settings: for Cmax / half-life / AUC(0-t) / Tmax: human, plasma; for AUC(0-t): read-out: AUC0-24, geometric mean; for Tmax: read-out: tmax, median
Procedure: The phase I study was designed in accordance with the Chinese State Food and Drug Administration (SFDA) recommendations (Guidance for Industry, 2005). PK evaluations were to be performed for single-dosing and multiple-dosing of which the dose levels were determined after completion of dose-escalation. Three dose levels (low, intermediate and high dose) for single-dosing and one dose level (the recommended dose for phase II) for multiple-dosing study, between 8 to 12 participants for each dose levels, were required to meet the SFDA guidance. A cross-over design to evaluate the effects of food intake was incorporated into the single-dosing assessment, also meeting the SFDA requirement, but data will be presented separately. […] Whole blood samples (1 ml) were collected at 0 (predose), 0.5, 1, 2, 3, 4, 6, 8, 12, 24, 32, and 48 hours for single-dosing evaluation and 0, 0.5, 1, 2, 3, 4, 6, 8, 12, and 24 hours (before the next dose) on days 1, 6, 28, and 56 for multiple-dosing evaluation. After the last dose on day 56, two additional samples were collected at 32 and 48 hours for multiple-dosing assessment. Plasma was collected from the blood samples following centrifugation, and stored at -80°C until analysis. […] The PK parameters, including area under the plasma concentration-time curve (AUC), maximum plasma concentration (Cmax), time to maximum concentration (tmax), and elimination half-life (t1/2) were determined by non-compartmental analysis using InnaPhase Kinetica 2000™ (InnaPhase Corp., Philadelphia, PA, USA). The linear-logarithmic trapezoidal method was used to calculate the AUC, and t1/2 λz was calculated by linear regression of the terminal slope of the logarithmic plasma concentration-time profile.

[3] = po, 500 mg, single oral dose 500 mg, n = 8
[4] = po, 750 mg, multiple oral dose of 750 mg, Day 1, n = 11
[5] = po, 750 mg, multiple oral dose of 750 mg, Day 6, n = 11
[6] = po, 750 mg, multiple oral dose of 750 mg, Day 28, n = 11
[7] = po, 750 mg, multiple oral dose of 750 mg, Day 56, n = 11
[8] = po, 750 mg, single oral dose 750 mg, n = 12
[9] = po, 850 mg, single oral dose 850 mg, n = 8

## N#CC1(c2ccc(NC(=O)c3cccnc3NCc3ccncc3)cc2)CCCC1 [apatinib]
xenograft
  in vivo efficacy compared to valatinib: superior in vivo efficacy
[1]; human, in vivo, 4 weeks
  recommended (phase II) dose: 750 mg
[1]; oral, once daily, patients
  maximum tolerated dose (MTD): 850 mg
VEGFR-2
  IC50: 2.43 nM
[2]; 750 mg once daily, multiple dosing
  time to steady-state conditions: ≤ 6 days
[2]; oral, 750 mg, after a single dose of 750 mg, read-out: Cmax values, variation between patients
  Cmax: 926 to 4620 ng/mL
[2]; oral, constant over the dose levels 500-850 mg, read-out: elimination half-life of the terminal phase (t1/2 λz) (converted)
  half-life: 9 h
[2]; [3]
  AUC(0-t): 11300 ng·h/mL
  Tmax: 3.5 h
[2]; po, 500 mg, single oral dose 500 mg, n = 8, read-out: Cmax, geometric mean
  Cmax: 1520 ng/mL
[2]; po, 500 mg, single oral dose 500 mg, n = 8, read-out: t1/2λz, mean (converted)
  half-life: 8.1 h
[2]; [4]
  AUC(0-t): 19400 ng·h/mL
  Tmax: 3 h
[2]; po, 750 mg, multiple oral dose of 750 mg, Day 1, n = 11, read-out: Cmax, geometric mean
  Cmax: 2420 ng/mL
[2]; po, 750 mg, multiple oral dose of 750 mg, Day 1, n = 11, read-out: t1/2λz, mean (converted)
  half-life: 8.9 h
[2]; [5]
  AUC(0-t): 25400 ng·h/mL
  Tmax: 4 h
[2]; po, 750 mg, multiple oral dose of 750 mg, Day 6, n = 11, read-out: Cmax, geometric mean
  Cmax: 2550 ng/mL
[2]; po, 750 mg, multiple oral dose of 750 mg, Day 6, n = 11, read-out: t1/2λz, mean (converted)
  half-life: 11 h
[2]; [6]
  AUC(0-t): 19900 ng·h/mL
  Tmax: 4 h
[2]; po, 750 mg, multiple oral dose of 750 mg, Day 28, n = 11, read-out: Cmax, geometric mean
  Cmax: 2210 ng/mL
[2]; po, 750 mg, multiple oral dose of 750 mg, Day 28, n = 11, read-out: t1/2λz, mean (converted)
  half-life: 11.3 h
[2]; [7]
  AUC(0-t): 15600 ng·h/mL
  Tmax: 3 h
[2]; po, 750 mg, multiple oral dose of 750 mg, Day 56, n = 11, read-out: Cmax, geometric mean
  Cmax: 1850 ng/mL
[2]; po, 750 mg, multiple oral dose of 750 mg, Day 56, n = 11, read-out: t1/2λz, mean (converted)
  half-life: 8.3 h
[2]; [8]
  AUC(0-t): 18200 ng·h/mL
  Tmax: 3 h
[2]; po, 750 mg, single oral dose 750 mg, n = 12, read-out: Cmax, geometric mean
  Cmax: 2380 ng/mL
[2]; po, 750 mg, single oral dose 750 mg, n = 12, read-out: t1/2λz, mean (converted)
  half-life: 9 h
[2]; [9]
  AUC(0-t): 22000 ng·h/mL
  Tmax: 4 h
[2]; po, 850 mg, single oral dose 850 mg, n = 8, read-out: Cmax, geometric mean
  Cmax: 2830 ng/mL
[2]; po, 850 mg, single oral dose 850 mg, n = 8, read-out: t1/2λz, mean (converted)
  half-life: 9.1 h
